Source: patent EP4255430B1, “8-HYDROX[…] PROTEASE INHIBITORS FOR USE IN THE PREVENTION AND/OR TREATMENT OF A CORONA VIRUS DISEASE” (Univerza v Ljubljani, priority 2020, dated 2022)

Test system: SARS-CoV-2
Experiment: High Content Assay: antiviral activity against SARS-CoV-2 in infected Huh7-hACE2 cells (Spike immunofluorescence, infection ratio)
Settings: for EC50 / EC90: Huh7-hACE2 cells, 0.1 MOI, 20 h; for activity against SARS-CoV-2 in Huh7-hACE2 cells (comparison between inhibitors): qualitative ranking; for EC90: read-out: EC90, the effective concentration capable to inhibit 90% of infection, follows the pre-treated values; for % of inhibition reached (maximal), based on infection ratio values: within tested concentration range, normalized to 50 µM hydroxychloroquine = 100%
[1] = pre-treated conditions (compounds added 3 hours prior infection)
[2] = treatment condition not restated in the sentence (follows the pre-treated values)

Structure (SMILES)	EC50 [1] [µM]	activity against SARS-CoV-2 in Huh7-hACE2 cells (comparison between inhibitors)	EC90 [µM]	% of inhibition reached (maximal), based on infection ratio values [%]	EC50 [2]
O=[N+]([O-])c1ccc(O)c2ncccc12 [Nitroxoline, 5-nitro-8-hydroxyquinoline]	1.9	highest activity	7.9	100	
CC(C)C[C@H](NC(=O)[C@H]1O[C@@H]1C(=O)O)C(=O)NCCCCN=C(N)N (relative stereo) [Compound E64]				< 100	higher concentrations
CN(C)C(=O)[C@H](Cc1ccccc1)NC(=O)C1OC1C(=O)NCCc1ccccn1 (stereo in doubt) [CLIK 148, N-{L-3-trans-[2-(pyridin-2-yl)ethylcarbamoyl]-oxirane-2-carbonyl}-L-Phe dimethylamide]				< 100	higher concentrations
CC1CCN(Cc2cc([N+](=O)[O-])c3cccnc3c2O)CC1 [Compound 3, 7-[(4-methylpiperidin-1yl)methyl]-5-nitroquinolin-8-ol]		stronger effect than CLIK 148, but weaker than Nitroxoline and Compound 17	10	100	
N#CCNCc1cc([N+](=O)[O-])c2cccnc2c1O [Compound 17, 2-{[(8-hydroxy-5-nitroquinoline-7-yl)methyl]amino}-acetonitrile]	1.9	highest activity	3.3	100	
CCOC(=O)[C@H]1O[C@@H]1C(=O)N[C@@H](CC(C)C)C(=O)NCCC(C)C [Compound E64d, (2S,3S)-trans-Epoxysuccinyl-L-leucylamido-3-methylbutane ethyl ester]				< 100	
